In patent US20250212891A1, “MIXTURES AND COMPOSITIONS COMPRISING PAENIBACILLUS STRAINS OR FUSARICIDINS AND CHEMICAL PESTICIDES” (BASF SE, priority 2016, published 2025):
Where two headings read alike, the source gives them in different places. Positions of bridges follow the written chain, without caps; N, C: chain ends. Non-standard residues stand in square brackets, D forms with d. Residues, ends and D or L forms follow the SMILES beside them. ξ: configuration not given here. *: point of attachment. Pentadecanoyl(3ξ-OH,15-Gua) = N=C(N)NCCCCCCCCCCCCC(O)CC(=O)*; d(aThr) = C[C@@H](O)[C@@H](N)C(=O)O; Thr(3ξ) = CC(O)[C@H](N)C(=O)O; ξY = NC(Cc1ccc(O)cc1)C(=O)O

What was measured:
Alternaria solani = test: Microtiterplate test against early blight (Alteso); assay type: cell-based
Botrytis cinerea = test: Microtiterplate test against grey mold (Botrci); assay type: cell-based
[1] = test system: Botrytis cinerea (BOTRCI); test: Fungal growth assay in 96 well plates; assay type: cell-based; details: evaluation 7 days after inoculation, OD 600 nm, about 18° C., read-out: Fungal growth inhibition (IC50 [μM]) BOTRCI (7 d)
[2] = test system: Phytophthora infestans (PHYTIN); assay type: in vivo; details: protective application, 7.2 ppm
[3] = test system: Alternaria solani (ALTESO); test: Fungal growth assay in 96 well plates; assay type: cell-based
[4] = test system: Septoria tritici (SEPTTR); assay type: in vivo; details: protective application, 360 ppm
Septoria tritici = test: Microtiterplate test against leaf blotch on wheat (Septtr); assay type: cell-based
Leptosphaeria nodorum = test: Microtiterplate test against wheat leaf spots (Leptno); assay type: cell-based
Pyricularia oryzae = assay type: cell-based; details: Pyrior, single active, 7 days after inoculation
[5] = test system: clinically relevant fungi and gram-positive bacteria such a Staphylococcus aureus; details: ChemMedChem 7, 871-882, 2012; cited from earlier work
[6] = test system: Fusarium graminearum (GIBBZE); assay type: in vivo; details: protective application, 360 ppm
[7] = test system: Phakopsora pachyrhizi (PHAKPA); test: Glasshouse test, soybean rust on soybean, protective application; assay type: in vivo; details: in planta, 360 ppm
[8] = test system: Botrytis cinerea (BOTRCI); test: Glasshouse test, grey mold on pepper, protective application; assay type: in vivo; details: in planta
[9] = test system: Alternaria solani (ALTESO); test: Glasshouse test, early blight on tomato, protective application; assay type: in vivo; details: in planta, 36 ppm
[10] = evaluation 3 days after inoculation, OD 600 nm, about 18° C., read-out: Fungal growth inhibition (IC50 [μM]) ALTESO (3 d)
[11] = evaluation 7 days after inoculation, OD 600 nm, about 18° C., read-out: Fungal growth inhibition (IC50 [μM]) ALTESO (7 d)
[12] = Botrytis cinerea, 168 h, 0.016 ppm, read-out: Observed efficacy
[13] = Botrytis cinerea, 168 h, 0.063 ppm, read-out: Observed efficacy
[14] = Botrytis cinerea, 168 h, read-out: Observed efficacy
[15] = Alternaria solani, 72 h, evaluation 3 days after inoculation, OD 600 nm, about 18° C., read-out: Fungal growth inhibition (IC50 [μM]) ALTESO (3 d)
[16] = Alternaria solani, 168 h, evaluation 7 days after inoculation, OD 600 nm, about 18° C., read-out: Fungal growth inhibition (IC50 [μM]) ALTESO (7 d)
[17] = Alternaria solani, summary over ALTESO and BOTRCI of Tab. 18, read-out: IC50 values (antifungal efficacy, Tab. 18)
[18] = Botrytis cinerea, 168 h, 1 ppm, read-out: Observed efficacy

COCC(=O)N(c1c(C)cccc1C)[C@H](C)C(=O)OC [Mefenoxam]
Observed efficacy (Alternaria solani; 1 ppm): 18%
Observed efficacy (Botrytis cinerea; 0.063 ppm): 5%

CC1OC(=O)[C@@H](C)NC(=O)[C@@H](CCC(N)=O)NC(=O)[C@@H]([C@H](C)O)NC(=O)C(Cc2ccc(O)cc2)NC(=O)[C@@H](C(C)C)NC(=O)[C@H]1NC(=O)CC(O)CCCCCCCCCCCCN=C(N)N (some centres unmarked) [Fusaricidin D, fusaricidin D] ({Pentadecanoyl(3ξ-OH,15-Gua)}-[Thr(3ξ)][dV][ξY][dT][dQ][dA]; ester 1-C)
IC50 [1]: 0.5 µM
% efficacy (% fungal attack), late blight on tomato caused by Phytophthora infestans [2]: 0%
IC50 [3, 10]: 1.1 µM
IC50 [3, 11]: 0.6 µM
% efficacy (% fungal attack), head blight on wheat caused by Septoria tritici [4]: 50%

CC(O)(Cn1cncn1)c1ccc(Oc2ccc(Cl)cc2)cc1C(F)(F)F (centres unmarked) [Mefentrifluconazol, 2-[4-(4-chlorophenoxy)-2-(trifluoromethyl)phenyl]-1-(1H-1,2,4-triazol-1-yl) propan-2-ol, reference compound]
Observed efficacy (Alternaria solani; 0.016 ppm): 12%
Observed efficacy (Septoria tritici; 0.001 ppm): 21%
Observed efficacy (Leptosphaeria nodorum; 0.001 ppm): 0%
Observed efficacy (Leptosphaeria nodorum; 0.016 ppm): 29%
inhibition of growth at 0.016 ppm (Botrytis cinerea; [12]): 5%

CC1(C)CCC(Cc2ccc(Cl)cc2)C1(O)Cn1cncn1 (centres unmarked) [Metconazol, metconazole, reference compound]
Observed efficacy (Alternaria solani; 0.063 ppm): 45%
Observed efficacy (Pyricularia oryzae; 0.25 ppm): 23%
Observed efficacy (Septoria tritici; 0.016 ppm): 25%
Observed efficacy (Leptosphaeria nodorum; 0.016 ppm): 3%
Observed efficacy (Leptosphaeria nodorum; 0.063 ppm): 27%
inhibition of growth at 0.004 ppm (Botrytis cinerea; Botrytis cinerea, 168 h, 0.004 ppm, read-out: Observed efficacy): 1%
inhibition of growth at 0.016 ppm (Botrytis cinerea; [12]): 9%
inhibition of growth at 0.063 ppm (Botrytis cinerea; [13]): 29%

CC1(C)CCC(=Cc2ccc(Cl)cc2)C1(O)Cn1cncn1 (centres unmarked) [Triticonazol, triticonazole, reference compound]
Observed efficacy (Pyricularia oryzae; 4 ppm): 39%
inhibition of growth at 0.25 ppm (Botrytis cinerea; [14]): 19%

CC(C)[C@@H]1NC(=O)[C@@H](C(C)C)NC(=O)[C@@H](NC(=O)CC(O)CCCCCCCCCCCCN=C(N)N)[C@@H](C)OC(=O)[C@@H](C)NC(=O)[C@@H](CC(N)=O)NC(=O)[C@@H]([C@@H](C)O)NC1=O (some centres unmarked) [Fusaricidin A, fusaricidin A] ({Pentadecanoyl(3ξ-OH,15-Gua)}-T[dV]V[d(aThr)][dN][dA]; ester 1-C)
MIC value range [5]: 0.78 to 3.12 µg/mL
% efficacy (% fungal attack), head blight on wheat caused by Fusarium graminearum [6]: 31%
IC50 [1]: 0.5 µM
% efficacy (% fungal attack), late blight on tomato caused by Phytophthora infestans [2]: 15%
IC50 [3, 10]: 1.3 µM
IC50 [3, 11]: 0.7 µM

CO/C=C(/C(=O)OC)c1ccccc1Oc1cc(Oc2ccccc2C#N)ncn1 [Azoxystrobin]
Observed efficacy (Alternaria solani; 0.016 ppm): 43%
Observed efficacy (Septoria tritici; 0.063 ppm): 60%
Observed efficacy (Leptosphaeria nodorum; 0.25 ppm): 59%

CC(C)[C@@H]1NC(=O)[C@@H](C(C)C)NC(=O)[C@@H](NC(=O)CC(O)CCCCCCCCCCCCN=C(N)N)C(C)OC(=O)[C@@H](C)NC(=O)[C@@H](CCC(N)=O)NC(=O)[C@@H]([C@H](C)O)NC1=O (stereo in doubt) [Fusaricidin B, fusaricidin B]
% efficacy (% fungal attack), head blight on wheat caused by Fusarium graminearum [6]: 0%
IC50 [1]: 0.6 µM
% efficacy (% fungal attack), late blight on tomato caused by Phytophthora infestans [2]: 4%
IC50 [3, 10]: 1.1 µM
IC50 [3, 11]: 0.6 µM

N#Cc1c[nH]cc1-c1cccc2c1OC(F)(F)O2 [Fludioxonil]
inhibition of growth at 0.004 ppm (Botrytis cinerea; [14]): 12%

Cn1cc(C(=O)Nc2ccccc2-c2cc(F)c(F)c(F)c2)c(C(F)F)n1 [Fluxapyroxad]
Observed efficacy (Botrytis cinerea; 0.016 ppm): 1%

COC(=O)N(OC)c1ccccc1COc1ccn(-c2ccc(Cl)cc2)n1 [Pyraclostrobin, pyraclostrobin, reference compound]
Observed efficacy (Pyricularia oryzae; 0.001 ppm): 28%
Observed efficacy (Pyricularia oryzae; 0.004 ppm): 44%
Observed efficacy (Septoria tritici; 0.004 ppm): 12%
Observed efficacy (Leptosphaeria nodorum; 0.001 ppm): 3%
Observed efficacy (Leptosphaeria nodorum; 0.016 ppm): 11%
inhibition of growth at 0.001 ppm (Botrytis cinerea; Botrytis cinerea, 168 h, 0.001 ppm, read-out: Observed efficacy): 4%
inhibition of growth at 0.016 ppm (Botrytis cinerea; [12]): 5%
inhibition of growth at 0.25 ppm (Botrytis cinerea; [14]): 10%

O=C(NCCc1ncc(C(F)(F)F)cc1Cl)c1ccccc1C(F)(F)F [Fluopyram]
Observed efficacy (Septoria tritici; 0.25 ppm): 12%
Observed efficacy (Septoria tritici; 1 ppm): 32%

Cn1cc(C(=O)Nc2cccc3c2[C@@H]2CC[C@H]3C2=C(Cl)Cl)c(C(F)F)n1 (racemic) [Benzovindiflupyr, benzovindiflupyr, reference compound]
Observed efficacy (Alternaria solani; 0.016 ppm): 12%
Observed efficacy (Pyricularia oryzae; 0.016 ppm): 72%
Observed efficacy (Septoria tritici; 0.25 ppm): 77%
Observed efficacy (Leptosphaeria nodorum; 0.25 ppm): 26%
Observed efficacy (Botrytis cinerea; 0.063 ppm): 17%

CCC(C)C1NC(=O)C(NC(=O)CC(O)CCCCCCCCCCCCNC(=N)N)C(C)OC(=O)C(C)NC(=O)C(CCC(N)=O)NC(=O)C(C(C)O)NC(=O)C(Cc2ccc(O)cc2)NC1=O (centres unmarked) [Compound 1B, fusaricidin 1B] ({Pentadecanoyl(3ξ-OH,15-Gua)}-TIYTQA; ester 1-C; configuration not given here)
Observed efficacy (Alternaria solani; 0.063 ppm): 13%
Observed efficacy (Alternaria solani; 0.25 ppm): 14%
Observed efficacy (Alternaria solani; 1 ppm): 59%
% efficacy (% fungal attack) PHAKPA [7]: 97%
Observed efficacy (Pyricularia oryzae; 0.016 ppm): 2%
Observed efficacy (Pyricularia oryzae; 0.063 ppm): 3%
Observed efficacy (Pyricularia oryzae; 0.25 ppm): 3%
Observed efficacy (Pyricularia oryzae; 1 ppm): 12%
Observed efficacy (Septoria tritici; 0.016 ppm): 20%
Observed efficacy (Septoria tritici; 0.063 ppm): 22%
Observed efficacy (Septoria tritici; 0.25 ppm): 20%
Observed efficacy (Leptosphaeria nodorum; 0.25 ppm): 0%
Observed efficacy (Leptosphaeria nodorum; 1 ppm): 14%
IC50 ([1]; Botrytis cinerea, 168 h): 0.4 µM
IC50 [3, 15]: 0.6 µM
IC50 [3, 16]: 0.4 µM
IC50 [3, 17]: 0.4 to 0.6 µM
inhibition of growth at 0.25 ppm (Botrytis cinerea; [14]): 4%
inhibition of growth at 1 ppm (Botrytis cinerea; [18]): 50%
% efficacy (% fungal attack) BOTRCI ([8]; 36 ppm): 97%
% efficacy (% fungal attack) BOTRCI ([8]; 360 ppm): 100%

prohexadione-calcium [Prohexadion-ca]
Observed efficacy (Pyricularia oryzae; 4 ppm): 4%

OC(Cc1ccccc1Cl)(Cn1nc[nH]c1=S)C1(Cl)CC1 (centres unmarked) [Prothioconazol, prothioconazole, reference compound]
Observed efficacy (Pyricularia oryzae; 0.25 ppm): 25%
Observed efficacy (Septoria tritici; 0.063 ppm): 10%

CNC(=O)/C(=N/OC)c1ccccc1COc1cc(C)ccc1C [Dimoxystrobin]
Observed efficacy (Alternaria solani; 0.063 ppm): 36%
Observed efficacy (Septoria tritici; 0.063 ppm): 73%
Observed efficacy (Botrytis cinerea; 0.063 ppm): 0%
Observed efficacy (Botrytis cinerea; 1 ppm): 23%

CC1COC(Cn2cncn2)(c2ccc(Oc3ccc(Cl)cc3)cc2Cl)O1 (centres unmarked) [Difenoconazol]
Observed efficacy (Alternaria solani; 0.25 ppm): 67%

CCC(C)C1NC(=O)C(NC(=O)CC(O)CCCCCCCCCCCCNC(=N)N)C(C)OC(=O)C(C)NC(=O)C(CC(N)=O)NC(=O)C(C(C)O)NC(=O)C(Cc2ccc(O)cc2)NC1=O (centres unmarked) [Compound 1A, fusaricidin 1A] ({Pentadecanoyl(3ξ-OH,15-Gua)}-TIYTNA; ester 1-C; configuration not given here)
Observed efficacy (Alternaria solani; 0.016 ppm): 1%
Observed efficacy (Alternaria solani; 0.063 ppm): 7%
Observed efficacy (Alternaria solani; 0.25 ppm): 10%
Observed efficacy (Alternaria solani; 1 ppm): 58%
% efficacy (% fungal attack) PHAKPA [7]: 95%
Observed efficacy (Pyricularia oryzae; 0.004 ppm): 3%
Observed efficacy (Pyricularia oryzae; 1 ppm): 7%
Observed efficacy (Septoria tritici; 0.016 ppm): 9%
Observed efficacy (Septoria tritici; 0.063 ppm): 8%
Observed efficacy (Septoria tritici; 0.25 ppm): 12%
% efficacy (% fungal attack) ALTESO [9]: 74%
Observed efficacy (Leptosphaeria nodorum; 1 ppm): 19%
IC50 ([1]; Botrytis cinerea, 168 h): 0.3 µM
IC50 [3, 15]: 0.6 µM
IC50 [3, 16]: 0.5 µM
IC50 [3, 17]: 0.4 to 0.6 µM
inhibition of growth at 1 ppm (Botrytis cinerea; [18]): 40%
% efficacy (% fungal attack) BOTRCI ([8]; 36 ppm): 97%
% efficacy (% fungal attack) BOTRCI ([8]; 360 ppm): 99%

Cc1cc(C)nc(Nc2ccccc2)n1 [Pyrimethanil]
Observed efficacy (Leptosphaeria nodorum; 0.063 ppm): 1%
inhibition of growth at 0.063 ppm (Botrytis cinerea; [13]): 11%
inhibition of growth at 4 ppm (Botrytis cinerea; Botrytis cinerea, 168 h, 4 ppm, read-out: Observed efficacy): 45%

COCC(=O)N(c1c(C)cccc1C)C(C)C(=O)OC (centres unmarked) [Metalaxyl]
Observed efficacy (Alternaria solani; 16 ppm): 10%
Observed efficacy (Leptosphaeria nodorum; 0.063 ppm): 0%
inhibition of growth at 0.25 ppm (Botrytis cinerea; [14]): 0%
